Experimental findings from patent US20240308985A1 (Psy Therapeutics, Inc., priority 2021, published 2024) are described below.

SMILES strings stand for the structures. Like-named read-outs stand apart in the source and are kept apart here. Some results are limits rather than exact numbers.

A short description of data set [1]: Pharmacokinetic study of compounds in mice (brain exposure). In kind it is in vivo, male C57BL/6 mice. Particulars: oral. The procedure: Healthy male C57BL/6 mice (8-12 weeks old) weighing between 17 to 35 g were procured from Global, India. Temperature and humidity were maintained at 22±f3° C. and 30-70%, respectively and illumination was controlled to give a sequence of 12 hr light and 12 hr dark cycle. Temperature and humidity were recorded by auto-controlled data logger system. All the animals were provided laboratory rodent diet. Reverse osmosis water treated with ultraviolet light was provided ad libitum.
Protocol A: Twenty-four male mice were divided into two groups as; Group 1: 30 mg/kg/IP; Plasma and brain; Number of animals=12: Animal #1-12. Group 2: 30 mg/kg/PO; Plasma and brain; Number of animals=12; Animal #13-24. Animals in Group 1 were administered intraperitoneally with solution formulation of PSY-05-00074-001 in 5% NMP, 5% Solutol HS-15 and 90% normal saline at 30 mg/kg dose. Animals in Group 2 were administered orally with solution formulation of PSY-05-00074-001 in 5% NMP, 5% Solutol HS-15 and 90% normal saline at 30 mg/kg dose. Blood samples (approximately 60 μL) were collected under light isoflurane anesthesia from retro orbital plexus at 0.25, 0.5, 1, 2, 4 and 8 hr (IP and PO). Plasma samples were separated by centrifugation of whole blood and stored below −70° C. until bioanalysis. Immediately after collection of blood from intraperitoneal and oral group animals, animals were euthanized with excess CO2 and brain samples were collected from set of two mice at each time point. Brain samples were divided into two parts. Half brain samples were homogenized using ice-cold phosphate buffer saline (pH—7.4) and homogenates were stored below −70±10° C. until analysis. Total homogenate volume was three times the brain weight. Other part of brain was stored below −70±10° C. for further analysis. All samples were processed for analysis by protein precipitation using acetonitrile and analyzed with fit-for-purpose LC/MS/MS method (LLOQ—2.02 ng/mL for plasma and 6.06 ng/g for brain). Pharmacokinetic parameters were calculated using the non-compartmental analysis tool of Phoenix WinNonlin®.
Protocol B: Thirty six mice were included into the study and divided in to three groups as Group 1 (n=12), Group 2 (n=12) and Group 3 (n=12) with n=2 mice per time-point design. Animals in Group 1 were administered intravenously with solution formulation of PSY-05-00414-001 at 5 mg/kg dose. Animals in Group 2 were administered orally with solution formulation of PSY-05-00414-001 at a dose of 5 mg/kg. Animals in Group 3 were administered intraperitoneally with solution formulation of PSY-05-00414-001 at 5 mg/kg dose. The formulation vehicle for all the three groups was 5% NMP, 5% Solutol HS-15 and 90% normal saline. Blood samples (approximately 60 μL) were collected under light isoflurane anesthesia from two mice at 0.25, 0.5, 1, 2, 4 and 8 h. Plasma was harvested by centrifugation of blood and stored at −70±10° C. until analysis. After blood collection, brain was perfused and isolated at 0.25, 0.5, 1, 2, 4 and 8 h. Brain samples were dipped thrice in ice-cold phosphate buffer saline, blotted dry and cut in to two equal portion. Half-brain samples from each time-point were weighed and homogenized using ice-cold phosphate buffer saline with twice volume of brain weight making the total homogenate three volumes and stored below −70±10° C. until analysis. Remaining half-portions of brain samples was snap freeze and kept in −70±10° C. until further confirmation from client. Plasma and brain samples were quantified by fit-for-purpose LC-MS/MS method (LLOQ: 1.01 ng/mL for plasma and 2.02 ng/mL for brain).
Protocol C: Fifty four male mice were included in study and divided in to three groups as Group 1 (n=18), Group 2 (n=18) and Group 3 (n=18) with 3 mice/time point design. Animals from Group 1, Group 2 and Group 3 were administered by intravenous, oral and intraperitoneal route with solution formulation of PSY-05-00451-001 at 5 mg/kg dose, respectively. […]

Data set [2] addresses Monoacylglycerol Lipase (MAGL) (Homo sapiens (Human), UniProt Q99685). As to the kind of experiment: MAGL inhibition potency (IC50) assay with 4NPA substrate. In kind it is biochemical. Particulars: read-out: MAGL Potency (Detection Method).
In the next data set the target is human recombinant FAAH (Homo sapiens (Human), UniProt O00519). Description: FAAH inhibition potency counter screen (IC50). In kind it is biochemical. The procedure:
Comparative compound potency at FAAH can be obtained with the following assay.
MAGL inhibitor compounds were also counter-screened for FAAH inhibition potency using the following assay. Assessment of FAAH inhibition was performed using Fatty Acid Amide Hydrolase Inhibitor Screening Assay Kit (Cayman Item No. 10005196) following manufacture's instruction with some modifications. The kit utilizes human recombinant FAAH and the fluorescent substrate, AMC Arachidonoyl amide (AAMCA). 5 μL of assay buffer (125 mM Tris, pH 9.0, 1 mM EDTA, i.e. ethylenediaminetetraacetic acid) was added to a 384-well black plate (Corning, 3573). Test compounds and control inhibitor JZL-195 (Cayman Chemical, 13668) were tested in 10-concentration IC50 mode with 3-fold serial dilution at a starting concentration of 100 μM and 10 μM, respectively. 300 nL or 30 nL of test compounds were delivered into a 384-well black plate (Corning, 3573) using a Labcyte Echo, followed by addition of 15 μL of FAAH enzyme (Cayman, 700302) in assay buffer. After a 5-minute pre-incubation at room temperature, 10 μL of AAMCA was added in assay buffer to start the reaction. Final concentration of FAAH enzyme is not specified and AAMCA substrate was used at the 20 uM. After these dilutions, the final concentration of the test compounds ranged from 100 μM to 5.08 nM or 10 μM down to 0.508 nM. The reaction was allowed to progress for 60 minutes, while the plate was read on an Envision plate reader at an Ex/Em of 350/460 nm with readings every minute. The data was analyzed in Microsoft Excel, using the slope between 30 and 59 minutes. The average of the no-enzyme wells (background) was subtracted from the data. The background-subtracted slope data was converted to % activity using the average of wells with enzyme and DMSO vehicle. IC50 values were calculated using GraphPad software (Sigmoidal dose response, variable slope equation).
Compounds listed in Table D2 were tested in the FAAH Counterscreen of Example 23
For orientation: The purpose of a counterscreen is to sort out artefacts and off-target activity.

In the next data set the target is MAGL enzyme (Homo sapiens (Human), UniProt Q99685). As to the kind of experiment: MAGL reversible inhibition assay (washout). In kind it is biochemical. Also noted: B: % MAGL activity returning after washout: concentration or dose not given beside the values. Conditions: for A: degree to which MAGL enzymatic activity returned following washout of test compounds: pre-washout compound concentration 1 μM; for B: % MAGL activity returning after washout: relative to control (no inhibitor before washout), immediately following a 30 minute washout. The procedure:
The reversible mechanism of MAGL inhibition of a test compound of Formula (I) can be determined. Flag-tagged MAGL enzyme will be immobilized on anti-Flag beads. Immobilized enzyme will be incubated +/− inhibitor at a dose that produces complete inhibition. Colorimetric substrate (4-NPA) will be added and the reaction monitored on a plate reader for 30 minutes to verify complete inhibition. Immobilized enzyme will then be washed thoroughly to remove the inhibitor, and fresh substrate will be added. The reaction will be monitored for an additional 30 minutes; returning enzymatic activity will indicate reversibility of inhibition.
MAGL enzyme was incubated for 30 minutes in the presence of 40× the IC50 concentration of inhibitor. Enzyme+inhibitor mix was then diluted 40-fold so that the final concentration of the inhibitor equaled the IC50 concentration. Substrate was added and the reaction was monitored for 30 minutes.

Setting [3] is: Method A: starting concentration of 100 μM.
Setting [4] is: Method 12: Reaction Biology MAGL enzyme, 15 nM.
[5] abbreviates: Method B: starting concentration of 10 μM.

Chain of Monoacylglycerol Lipase (MAGL) (Q99685 2-303): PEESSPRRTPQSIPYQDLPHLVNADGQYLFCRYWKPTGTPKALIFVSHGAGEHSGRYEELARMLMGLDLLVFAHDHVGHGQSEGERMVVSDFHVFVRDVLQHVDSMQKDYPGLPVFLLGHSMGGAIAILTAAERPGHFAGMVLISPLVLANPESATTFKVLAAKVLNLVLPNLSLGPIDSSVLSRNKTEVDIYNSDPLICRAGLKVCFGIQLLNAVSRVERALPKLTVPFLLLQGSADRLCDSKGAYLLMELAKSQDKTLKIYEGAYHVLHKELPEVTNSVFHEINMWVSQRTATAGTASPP
Chain of MAGL enzyme (Q99685 whole entry): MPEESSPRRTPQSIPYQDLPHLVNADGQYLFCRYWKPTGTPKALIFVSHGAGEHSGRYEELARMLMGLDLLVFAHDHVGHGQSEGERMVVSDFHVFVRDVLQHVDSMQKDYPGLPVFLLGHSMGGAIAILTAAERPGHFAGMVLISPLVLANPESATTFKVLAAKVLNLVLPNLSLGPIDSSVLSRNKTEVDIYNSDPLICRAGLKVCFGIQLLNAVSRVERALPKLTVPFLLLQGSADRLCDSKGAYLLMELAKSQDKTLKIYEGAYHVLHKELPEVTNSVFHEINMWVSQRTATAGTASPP
Chain of human recombinant FAAH (O00519 whole entry): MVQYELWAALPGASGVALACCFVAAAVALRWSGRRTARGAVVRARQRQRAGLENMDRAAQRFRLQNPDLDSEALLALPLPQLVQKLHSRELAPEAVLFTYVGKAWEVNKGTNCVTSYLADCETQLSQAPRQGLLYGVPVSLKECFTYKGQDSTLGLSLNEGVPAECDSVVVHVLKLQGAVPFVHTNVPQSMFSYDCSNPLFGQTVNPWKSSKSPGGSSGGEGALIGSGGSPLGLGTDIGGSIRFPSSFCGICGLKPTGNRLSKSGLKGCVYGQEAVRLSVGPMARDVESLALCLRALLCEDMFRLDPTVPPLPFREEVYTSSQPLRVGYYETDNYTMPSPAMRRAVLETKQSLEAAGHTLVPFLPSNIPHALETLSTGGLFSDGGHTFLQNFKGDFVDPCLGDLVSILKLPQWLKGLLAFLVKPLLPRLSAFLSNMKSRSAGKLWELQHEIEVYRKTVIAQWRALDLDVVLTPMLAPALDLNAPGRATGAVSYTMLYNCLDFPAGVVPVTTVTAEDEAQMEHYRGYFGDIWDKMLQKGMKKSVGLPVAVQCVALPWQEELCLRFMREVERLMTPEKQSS

For `O=C(c1ccc(F)cc1OC1CC1)N1CC2(CC(n3nc(-c4ccccc4C(F)(F)F)cc3C(F)(F)F)C2)C1` (single isomer, unassigned) [Compound 451, (2-cyclopropoxy-4-fluorophenyl)(6-{5-(trifluoromethyl)-3-[o-(trifluoromethyl)phenyl]-1-pyrazolyl}-2-aza-2-spiro[3.3]heptyl)methanone], in data set [1] (5 mg/kg), the “AUClast” value is 1204.22 ng·h/mL and the highest concentration (Cmax) (usually the maximum level reached in the sampled fluid or tissue) came to 271.39 ng/g.

Turning to `Cc1cnn(C2CC3(C2)CN(C(=O)c2cc(O)ccc2F)C3)c1-c1cc(F)ccc1F` (single isomer, unassigned) [Compound 476, (6-(5-(2,5-Difluorophenyl)-4-methyl-1H-pyrazol-1-yl)-2-azaspiro [3.3]heptan-2-yl) (2-fluoro-5-hydroxyphenyl) methanone], the IC50 in data set [2] (Method 13: Reaction Biology MAGL enzyme, 12 nM) was in the range of 50 to 150 nM. Further, in data set [1] (5 mg/kg), the “AUClast” value was determined as 223.64 ng·h/mL and the “Cmax” value came to 72 ng/g.

Turning to `Cc1cc(C2CC3(C2)CN(C(=O)c2cc(O)ccc2F)C3)n(-c2ccccc2C)n1` [Compound 74, (2-fluoro-5-hydroxyphenyl)(6-(3-methyl-1-(o-tolyl)-1H-pyrazol-5-yl)-2-azaspiro[3.3]heptan-2-yl)methanone], in data set [1] (male, C57BL/6, mouse, 30 mg/kg, Protocol A), the area under the curve AUC(0-t) (usually exposure summed from dosing to a finite time, without extrapolation to infinity) worked out at 117 ng·h/mL. The Cmax in data set [1] (male, C57BL/6, mouse, 30 mg/kg, Protocol A, read-out: Cmax) stood at 102 ng/g.

Turning to `Cc1cc(C2CC3(C2)CN(C(=O)c2cccc(O)c2)C3)n(-c2ccccc2C)n1` [Compound 125, (3-hydroxyphenyl)(6-(3-methyl-1-(o-tolyl)-1H-pyrazol-5-yl)-2-azaspiro[3.3]heptan-2-yl)methanone], the IC50 in data set [2] (Methods 1, 2) is 50 to 150 nM; on human recombinant FAAH (setting [3]), > 10000 nM.

As to `Cc1cc(C2CC3(C2)CN(C(=O)c2c(F)ccc(O)c2F)C3)n(-c2ccccc2C)n1` [Compound 127, (2,6-difluoro-3-hydroxyphenyl)(6-(3-methyl-1-(o-tolyl)-1H-pyrazol-5-yl)-2-azaspiro[3.3]heptan-2-yl)methanone], the IC50 in data set [2] (Method 2: Cayman Chemical MAGL enzyme, 10 nM) is 1000 to 5100 nM; at human recombinant FAAH (setting [3]) it was > 10000 nM.

For `O=C(c1cc(O)ccc1F)N1CC2(CC(n3cc(C(F)(F)F)c(-c4ccccc4F)n3)C2)C1` [Compound 473, (2-fluoro-5-hydroxyphenyl){6-[3-(o-fluorophenyl)-4-(trifluoromethyl)-1-pyrazolyl]-2-aza-2-spiro[3.3]heptyl}methanone], the IC50 in data set [2] (setting [4]) was < 50 nM. Further, the IC50 on human recombinant FAAH (setting [5]) was > 10000 nM. Besides, at MAGL enzyme, the “A: degree to which MAGL enzymatic activity returned following washout of test compounds” value is listed as 41 and the “B: % MAGL activity returning after washout” value was <50%.

`O=C(c1cc(O)ccc1F)N1CC2(CC(n3cc(C4CC4)c(-c4ccccc4F)n3)C2)C1` [Compound 493, {6-[4-cyclopropyl-3-(o-fluorophenyl)-1-pyrazolyl]-2-aza-2-spiro[3.3]heptyl}(2-fluoro-5-hydroxyphenyl)methanone]: the IC50 in data set [2] (setting [4]) is < 50 nM. The IC50 at human recombinant FAAH (setting [5]) was > 10000 nM. On MAGL enzyme, the “A: degree to which MAGL enzymatic activity returned following washout of test compounds” value was 47 and the “B: % MAGL activity returning after washout” value was <50%.
